Assay results as given in patent US20240398844A1, “PHENYLCOUMARINS FOR TREATING INFLAMMATION” (Ohio State Innovation Foundation, priority 2021, published 2024).

Columns and labels:
HbA1C = experiment: Diabetic zebrafish Western blot, HbA1C expression; format: in vivo
Method: (§1) Alloxan-induced diabetic zebrafish were treated with compounds for immunoblot to validate the newly developed animal model, determine the antidiabetic potential of natural product leads, evaluate glucose metabolism, and discover possible mechanisms of action.
At 72 hpf, naturally dechorionated zebrafish were sorted into a 24-well microplate with 10 fish per well. Type 2 diabetes was induced with the diabetogenic agent alloxan at a dose of 0.5 mg/mL in system water for 3 hours. […] After 3 hours of treatment with natural product samples, 10 mg/mL D-glucose was administered in system water for 30 minutes, followed by 1 hour in fresh system water to metabolize the glucose and natural product leads. Upon completion of the 4-phase treatment cycle, zebrafish treatment groups were snap frozen into individual microcentrifuge tubes on dry ice, stored overnight at −80° C., thawed, homogenized with 2 μL PBS per animal, and centrifuged at 4° C. for 1 hour at 17,000 rpm. Protein content of homogenate supernatant was determined using the Pierce BCA Protein Assay kit (Pierce Biotechnology) and bovine serum albumin (BSA) standard curve. Absorbance of protein solutions from zebrafish homogenates and serial dilutions of the BSA standard were measured at 544 nm, using a FLUOstar Optima plate reader (BMG Labtechnologies GmbH, Inc.). Homogenates were analyzed by Western blot. Equal amounts of protein (20 μg) were combined with 4× lithium dodecyl sulphate (LDS) loading buffer (NuPAGE, Life Technologies, Carlsbad, CA, USA), brought to volume (15 μL) with PBS, and heated to 95° C. for 5 minutes. Proteins were resolved using NuPAGE Bis-Tris 4-12% gradient sodium dodecyl sulfate polyacrylamide gel electrophoresis (SDS-PAGE) gels together with SeeBlue Plus2 Pre-Stained Standard Ladder (Life Technologies).
(§2) Electrophoresis was performed using NuPAGE MES SDS Running Buffer and XCell SureLock Mini-Cell Electrophoresis System (Life Technologies). Separated proteins were transferred from the gel to a polyvinylidene fluoride (PVDF) membrane using tris buffered saline with Tween-20 (TBST) buffer. The blots were blocked in 3% BSA in TBST and subsequently probed using primary antibodies (1:1000 in 1% BSA in TBST) against each target overnight (Table 1). The secondary, horseradish peroxidase (HRP) conjugated antibodies (1:2000) were obtained from Santa Cruz Biotechnology Inc., (Santa Cruz, CA, USA). Conjugated antibodies were detected using SuperSignal West Femto chemiluminescent substrate from Pierce Biotechnology. Western blots were visualized, and images captured using a luminometer and LumiAnalyst 3.0 software (Boehringer-Mannheim, Mannheim, Germany). Band density was quantified for proteins of interest using ImageJ Gel Analysis.
In the case of duplicate blots, the band density results were expressed in bar graphs as the mean±standard error of the mean (SEM) of two independent experiments. Due to the labor- and time-intensive aspect of Western blot analysis with multiple target proteins, a maximum of two independent immunoblot experiments were performed per compared sample set. […] Additionally, treatment groups were also evaluated versus the diabetic, untreated control group for significance by Student's f-test and indicated in the bar graphs with p values represented by *p<0.05, **p<0.01, and ***p<0.001. […]

PEPCK = experiment: Diabetic zebrafish Western blot, PEPCK expression; format: in vivo; settings: 10 μM, FIG. 8
Method: as §1
At 72 hpf, naturally dechorionated zebrafish were sorted into a 24-well microplate with 10 fish per well. Type 2 diabetes was induced with the diabetogenic agent alloxan at a dose of 0.5 mg/mL in system water for 3 hours. The incubation solution was changed to 0.01% DMSO in system water with compounds at concentrations of 20 μg/mL or […], respectively. After 3 hours of treatment with natural product samples, 10 mg/mL D-glucose was administered in system water for 30 minutes, followed by 1 hour in fresh system water to metabolize the glucose and natural product leads. Upon completion of the 4-phase treatment cycle, zebrafish treatment groups were snap frozen into individual microcentrifuge tubes on dry ice, stored overnight at −80° C., thawed, homogenized with 2 μL PBS per animal, and centrifuged at 4° C. for 1 hour at 17,000 rpm. Protein content of homogenate supernatant was determined using the Pierce BCA Protein Assay kit (Pierce Biotechnology) and bovine serum albumin (BSA) standard curve. Absorbance of protein solutions from zebrafish homogenates and serial dilutions of the BSA standard were measured at 544 nm, using a FLUOstar Optima plate reader (BMG Labtechnologies GmbH, Inc.). Homogenates were analyzed by Western blot. Equal amounts of protein (20 μg) were combined with 4× lithium dodecyl sulphate (LDS) loading buffer (NuPAGE, Life Technologies, Carlsbad, CA, USA), brought to volume (15 μL) with PBS, and heated to 95° C. for 5 minutes. Proteins were resolved using NuPAGE Bis-Tris 4-12% gradient sodium dodecyl sulfate polyacrylamide gel electrophoresis (SDS-PAGE) gels together with SeeBlue Plus2 Pre-Stained Standard Ladder (Life Technologies).
as §2, with “Western blots were visualized, and images captured using a luminometer and LumiAnalyst 3.0 software (Boehringer-Mannheim, Mannheim, Germany).” left out, “Analysis. […]” for “Analysis.”

[1] = diabetic zebrafish, 10, 5, and 1 μM (rosiglitazone 10 μM), duplicate blots, FIG. 7

SMILES | HbA1C expression (Western blot band density) (HbA1C; [1]) | PEPCK expression versus rosiglitazone (PEPCK) | HbA1C expression (Western blot band density) (HbA1C; diabetic zebrafish, 10 μM, library screen, FIG. 2 / FIG. 11)
COc1cc(O[C@@H]2OCC(O)(CO[C@@H]3OC(CO)[C@@H](O)C(O)C3O)C2O)c2c(-c3ccc(OC(C)C)c(O)c3)cc(=O)oc2c1 (single isomer, unassigned) [Compound 40] | lacking a dose-dependent response | approximately equal efficacy to rosiglitazone | –
COc1cc(O[C@@H]2O[C@H](CO[C@@H]3OCC(O)(CO)[C@H]3O)[C@@H](O)[C@H](O)[C@H]2O)c2c(-c3ccc(O)c(O)c3)cc(=O)oc2c1 (stereo partly drawn) [Compound 24, 5-O-[β-D-apiofuranosyl-(1→6)-β-D-glucopyranosyl]-7-methoxy-3′,4′-dihydroxy-4-phenylcoumarin] | reduced glycated hemoglobin levels in comparison to rosiglitazone | greater gluconeogenic effect than rosiglitazone | most effective in reducing glycated hemoglobin
